Assay results taken from US20100185419A1, “ALGORITHM FOR DESIGNING IRREVERSIBLE INHIBITORS” (Avila Therapeutics, Inc., priority 2008, published 2010).

Key:
HCV NS3/4A wild type = target: T1, HCV NS3/4A wild type (Hepatitis C virus genotype 1b, UniProt P26662); assay: Mass spectral analysis of intact HCV NS3/4A wild type protease; format: binding; settings: 10-fold excess of compound, 1 hr to 3 hrs, MALDI-TOF
T1 construct: The single-chain proteolytic domain (NS4A21-32-GSGS-NS33-631) was cloned into pET-14b; His tag; made in house; host or cells: Escherichia coli BL21
Experimental: Mass spectrometric analysis of HCV in the presence of Compound 5 was performed using the following protocol: HCV NS3/4A wild type (wt) was incubated for 1 hr at a 10× fold access of Compound 5 to protein. 2 μl aliquots of the samples were diluted with 10 μl of 0.1% TFA prior to micro C4 ZipTipping directly onto the MALDI target using Sinapinic acid as the desorption matrix (10 mg/ml in 0.1% TFA:Acetonitrile 50:50). The instrument was set in linear mode using a pulsed extraction setting of 24,500 and apomyoglobin as the standard to calibrate the instrument.
100 pmols of HCV wild type (Bioenza CA) was incubated with compound for 1 hr and 3 hrs at 10-fold access of Compound 6 to protein. 1 μl aliquots of the samples (total volume of 4.24 ul) were diluted with 10 μl of 0.1% TFA prior to micro C4 ZipTipping directly onto the MALDI target using Sinapinic acid as the desorption matrix (10 mg/ml in 0.1% TFA:Acetonitrile 50:50). Analyses were performed on a Shimadzu Biotech Axima TOF^2 (Shimadzu Instruments) matrix-assisted-laser desorption/ionization Time-of-Flight (MALDI-TOF) mass spectrometer.

HCV NS3/4A 1b protease = HCV NS3/4A 1b protease (Hepatitis C virus genotype 1b, UniProt P26662); assay: biochemical
Experimental: An HCV Protease FRET Assay for HCV NS3/4A 1b Enzyme (IC50_APP) was used. The following protocol was used to generate “apparent” IC50 (IC50_APP) values. […] Protease reactions were immediately started after enzyme addition with the addition of 45 μL of the FRET substrate and monitored for 60-90 minutes at λex485/λem520 in a Synergy4 plate reader from BioTek (Winooski, Vt.).

[1] = test system: Btk signaling in Ramos cells; assay: Btk Ramos cellular assay (PLCγ2 phosphorylation); format: cell-based; settings: Homo sapiens, 1 μM compound
Experimental: Compounds CNX-85 was assayed in Ramos human Burkitt lymphoma cells. Ramos cells were grown in suspension in T225 flasks, spun down, resuspended in 50 mls serum-free media and incubated for 1 hour. Compound was added to Ramos cells in serum free media to a final concentration of 1, 0.1, 0.01, or 0.001 μM. Ramos cells were incubated with compound for 1 hour, washed again and resuspended in 100 ul serum-free media. Cells were then stimulated with 1 μg of goat F(ab′)2 Anti-Human IgM and incubated on ice for 10 minutes to activate B cell receptor signaling pathways. After 10 minutes, the cells were washed once with PBS and then lysed on ice with Invitrogen Cell Extraction buffer. 16 μg total protein from lysates were loaded on gel and blots were probed for phosphorylation of the Btk substrate PLCγ2.

Btk = target: T2, Btk (Homo sapiens, UniProt Q06187); assay: Omnia assay for potency against Btk; settings: biochemical assay; read-out: IC50 Btk kinase
T2 construct: purchased Invitrogen
Experimental: The protocol below describes continuous-read kinase assays to measure inherent potency of compounds against active forms of Btk enzyme. The mechanics of the assay platform are best described by the vendor (Invitrogen, Carlsbad, Calif.) on the world wide web at invitrogen.com/site/us/en/home/Products-and-Services/Applications/Drug-Discovery/Target-and-Lead-Identification-and-Validation/KinaseBiology/KB-Misc/Biochemical-Assays/Omnia-Kinase-Assays.html. Briefly, 10× stocks of 5 nM Btk from Invitrogen, 1.13×40 μM ATP (AS001A) and 10 μM (ATP KMapp ˜[…]) Tyr-Sox conjugated peptide substrates (KCZ 1001) were prepared in 1× kinase reaction buffer consisting of 20 mM Tris, pH 7.5, 5 mM MgCl2, 1 mM EGTA, 5 mM β-glycerophosphate, 5% glycerol (10× stock, KBOO2A) and 0.2 mM DTT (DS001A).

T1 sequence (P26662 1013-1207, looked up, natural form): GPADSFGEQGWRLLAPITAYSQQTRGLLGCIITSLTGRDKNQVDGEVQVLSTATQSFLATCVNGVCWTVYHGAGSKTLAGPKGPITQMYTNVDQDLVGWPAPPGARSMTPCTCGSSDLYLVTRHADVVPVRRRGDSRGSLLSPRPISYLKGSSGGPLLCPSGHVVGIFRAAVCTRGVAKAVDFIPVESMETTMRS
T2 sequence (Q06187 whole entry): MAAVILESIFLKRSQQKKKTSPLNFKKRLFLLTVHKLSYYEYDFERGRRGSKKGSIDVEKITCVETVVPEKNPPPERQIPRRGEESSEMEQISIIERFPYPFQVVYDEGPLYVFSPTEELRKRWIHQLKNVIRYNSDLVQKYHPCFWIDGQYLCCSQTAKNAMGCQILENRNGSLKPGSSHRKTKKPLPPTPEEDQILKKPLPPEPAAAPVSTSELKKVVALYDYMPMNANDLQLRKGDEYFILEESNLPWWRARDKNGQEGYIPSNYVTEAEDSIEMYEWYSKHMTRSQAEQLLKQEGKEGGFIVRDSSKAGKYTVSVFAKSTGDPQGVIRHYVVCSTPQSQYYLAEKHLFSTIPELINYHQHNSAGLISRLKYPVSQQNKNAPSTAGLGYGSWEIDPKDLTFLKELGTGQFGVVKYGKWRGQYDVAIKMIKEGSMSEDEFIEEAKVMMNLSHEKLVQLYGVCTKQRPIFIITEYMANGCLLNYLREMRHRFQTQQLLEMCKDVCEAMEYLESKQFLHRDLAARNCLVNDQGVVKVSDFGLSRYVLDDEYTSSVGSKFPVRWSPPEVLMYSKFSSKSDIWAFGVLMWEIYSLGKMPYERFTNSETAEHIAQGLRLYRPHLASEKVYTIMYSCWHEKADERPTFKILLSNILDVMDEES
Chain of HCV NS3/4A 1b protease (P26662 1027-1208): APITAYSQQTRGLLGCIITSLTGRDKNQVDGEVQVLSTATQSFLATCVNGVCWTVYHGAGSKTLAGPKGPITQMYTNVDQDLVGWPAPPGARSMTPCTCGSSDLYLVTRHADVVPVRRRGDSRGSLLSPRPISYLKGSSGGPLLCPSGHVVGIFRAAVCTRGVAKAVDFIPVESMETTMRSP
Chain of HCV NS3/4A 1b protease (P26662 1658-1711): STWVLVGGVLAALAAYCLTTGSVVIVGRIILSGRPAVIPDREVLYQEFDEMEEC

IC50 (Btk) [nM]	SMILES	adduct formation with HCV protease wild type (HCV NS3/4A wild type)	IC50 (HCV NS3/4A 1b protease) [nM]	inhibition at 1 µM [1] [%]
	C=C[C@@H]1C[C@]1(NC(=O)[C@@H]1C[C@@H](Oc2cc(-c3ccccc3)nc3cc(OC)ccc23)CN1C(=O)[C@H](CCC(=O)C=C(C)C)NC(=O)OC(C)(C)C)C(=O)NS(=O)(=O)C1CC1 [Compound 8, tert-butyl-(S)-1-((2S,4R)-2-((1R,2S)-1-(cyclopropylsulfonylcarbamoyl)-2-vinylcyclopropylcarbamoyl)-4-(7-methoxy-2-phenylquinolin-4-yloxy)pyrrolidin-1-yl)-7-methyl-1,5-dioxooct-6-en-2-ylcarbamate]	adduct of HCV protease with the compound was formed	< 0.5	
1.8	C=CC(=O)Nc1cccc(Nc2cc(Nc3ccc(Oc4ccccc4)cc3)ncn2)c1 [Compound 10, N-{3-[6-(4-phenoxyphenylamino)-pyrimidin-4-ylamino]phenyl}-2 propenamide]			85
